Literature values in patent US20230000960A1, “NEOANTIGEN COMPOSITIONS AND USES THEREOF” (BIONTECH US INC., priority 2019, published 2023).

Tested on: ovarian carcinoma patients
Conditions: poly-ICLC in combination with a NYESO-1 peptide vaccine (in addition to Montanide); phase 1 study

poly-ICLC
patients showing induction of CD4+ and CD8+ T cell, as well as antibody responses to the peptide: > 90%
